In ChEMBL document CHEMBL1159237, “The isolation and structural elucidation of three new neolignans, piperulins [corrected] A, B, and C, as platelet activating factor receptor antagonists from Piper puberulum” (J Nat Prod, 1995):

Key:
[1] = Displacement of [3H]PAF from rabbit PAF receptor in isolated platelet plasma membrane; format: cell membranes, Oryctolagus cuniculus
[2] = species on record: Oryctolagus cuniculus; assay: Displacement of [3H]PAF from rabbit PAF receptor in isolated platelet plasma membrane at 10 uM; format: cell membranes

SMILES	IC50 [1] [µM]	Ki [1] [µM]	Activity [2] [%]
C=CCC1=C[C@@]2(OC)[C@@H](C)[C@H](c3ccc(OC)c(OC)c3)[C@@H](C1=O)[C@@H]2OC(C)=O [PUBERULIN A]	7.3	4.7	63
C=CCC1=C[C@@]2(OC)[C@@H](C)[C@H](c3ccc4c(c3)OCO4)[C@@H](C1=O)[C@@H]2OC(C)=O [PUBERULIN B]	≥ 10	–	43
C=CC[C@]12C=C(OC)C(=O)[C@H]([C@@H](c3ccc(O)c(OC)c3)[C@@H]1C)[C@@H]2OC(C)=O [PUBERULIN C]	5.7	3.7	66
